Consider nine compounds from patent US20250108119A1, “NOVEL STEROID PAYLOADS, STEROID LINKERS, ADCs CONTAINING AND USE THEREOF” (IMMUNEXT, INC., priority 2021, published 2025).

Assay [1] concerns peritoneal resident macrophages (PRM). Nature of the assay: In vivo treatment/ex vivo PRM activation, TNFα and IL-6 in supernatant. Set-up: species or system hVISTA mice. The note with it: for preventing ex vivo induction of TNFα and IL-6 in PRM: Experiment 9: linker payloads as conjugates, 7 days post 0.2 mg/Kg of GC payload, supernatant 24h; for potency in PRM cytokine model when dosed 7 days early (conclusions) / controlling cytokine response in PRM when dosed 14 days early (conclusions): linker/payloads as anti-VISTA conjugates. Here is the method:
Based thereon we developed a model to allow us to evaluate long-term anti-inflammatory impact of ADC on specific target populations, such as PRMs. […] In the absence of GC treatment, after 2h PRMs become highly activated as shown by increases in cytokine production. […] The objective of these studies was to evaluate the efficacy and pharmacodynamic range of INX human VISTA antibodies conjugated to a glucocorticoid payload as compared to free Dex.
After euthanasia, mice were injected in the peritoneal cavity with 7 ml of PBS/0.5% BSA/2 mM EDTA. After a brief massage of the peritoneum, a small incision was performed and the peritoneal lavage collected. PRM were isolated using negative selection (Miltenyi kit, ref 130-110-434). Spleen were dissected and dissociated mechanically; monocytes were isolated using […] (Stem Cell, EasySep™ Mouse CD11b Positive Selection Kit II).
PRMs were resuspended in RPMI 1640 with 10% FBS, 10 mM Hepes, Penicillin/Streptomycin and glutamine and 100,000 cells were plated per well in a 96-well tissue culture plate. Supernatants were collected at 2 and 24h post plating and stored at −80° C. […]
• BioLegend (cat #430904) ELISA MAX Deluxe Set Mouse TNF-α • BioLegend (cat #431304) ELISA MAX Deluxe Set Mouse IL-6
ELISAs were conducted following the manufacturer's included protocol.

In assay [2] the test system is FKBP5. Nature of the assay: FKBP5 transcription in peritoneal resident macrophages (PRM) and spleen cells after in vivo treatment. Set-up: species or system hVISTA mice. The note with it: linker payloads as anti-VISTA conjugates; for FKBP5 induction in splenic cells (conclusions): day 1, 7, 14.
For assay [3], the system named is LPS stimulated human PBMCs. Nature of the assay: LPS stimulated human PBMC, IL-1β and IL-6 ELISA. In kind it is cell-based. The method in brief: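 Human PBMC (1-2 healthy donors), 150,000 cells/well, treated with test agents at 1,000 nM down to 1 nM or 0.2 nM, in duplicate. LPS at 1 ng/ml added immediately after free payload or 4 h after conjugates; IL-1β and IL-6 in supernatants measured by ELISA.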
On the technique in general: An ELISA detects its analyte on a solid surface through an enzyme-linked reagent.

SMILES strings stand for the structures.

In the case of `C[C@]12C=CC(=O)C=C1CC[C@@H]1[C@@H]2[C@@H](O)C[C@@]2(C)[C@H]1C[C@H]1O[C@@H](C34CC(Cc5cccc(NC(=O)[C@H](CCC(=O)O)NC(=O)CNC(=O)CBr)c5)(C3)C4)O[C@]12C(=O)CO` [INX O, (S)-4-(2-(2-bromoacetamido)acetamido)-5-((3-((3-((6aR,6bS,7S,8aS,8bS,10R,11aR,12aS,12bS)-7-hydroxy-8b-(2-hydroxyacetyl)-6a,8a-dimethyl-4-oxo-2,4,6a,6b,7,8,8a,8b,11a,12,12a,12b-dodecahydro-1H-naphtho[2′,1′:4,5]indeno[1,2-d][1,3]dioxol-10-yl)bicyclo[1.1.1]pentan-1-yl)methyl)phenyl)amino)-5-oxopentanoic acid], in assay [1], the “preventing ex vivo induction of TNFα and IL-6 in PRM” value (from here on “preventing ex vivo induction”) was “little and non-significant impact on the PRM cytokine response”; the “potency in PRM cytokine model when dosed 7 days early (conclusions)” value (“potency in PRM cytokine model” for short) was “very limited and non-significant potency when conjugated to INX201”.
Turning to `C[C@]12C=CC(=O)C=C1[C@@H](F)C[C@H]1[C@@H]3C[C@H]4O[C@@H](c5ccc(CC67CC(NC(=O)[C@H](CCC(=O)O)NC(=O)CNC(=O)CBr)(C6)C7)cc5)O[C@@]4(C(=O)CO)[C@@]3(C)C[C@H](O)[C@@]12F` [INX S, (S)-4-(2-(2-bromoacetamido)acetamido)-5-((3-(4-((2S,6aS,6bR,7S,8aS,8bS, 10R,11aR,12aS,12bS)-2,6b-difluoro-7-hydroxy-8b-(2-hydroxyacetyl)-6a,8a-dimethyl-4-oxo-2,4,6a,6b,7,8,8a,8b,11a,12,12a,12b-dodecahydro-1H-naphtho[2′,1′:4,5]indeno[1,2-d][1,3]dioxol-10-yl)benzyl)bicyclo[1.1.1]pentan-1-yl)amino)-5-oxopentanoic acid], in assay [1], the “preventing ex vivo induction” value is reported as “remarkable long-term potency in controlling cytokine responses”; the “controlling cytokine response in PRM when dosed 14 days early (conclusions)” value (“controlling cytokine response in PRM” below) is listed as “significant potency in controlling cytokine response in PRM when dosed 14 days early”; the “potency in PRM cytokine model” value is “remarkably more potent than payloads INX P and INX R when dosed 7 days early”. In addition, in assay [2], the “FKBP5 induction when dosed 14 days early (conclusions)” value is “still display significant potency when dosed 14 days early in regard to FKBP5 induction”; the “FKBP5 induction in splenic cells (conclusions)” value (from here on “FKBP5 induction in splenic cells”) is “Significant FKBP5 induction is seen at day 1, 7, and 14 in splenic cells”.
For `C[C@]12C=CC(=O)C=C1CC[C@@H]1[C@@H]2[C@@H](O)C[C@@]2(C)[C@H]1C[C@H]1O[C@@H](c3ccc(OC4CC5(CC(NC(=O)[C@H](CCC(=O)O)NC(=O)CNC(=O)CBr)C5)C4)cc3)O[C@]12C(=O)CO` (stereo partly drawn) [INX A4, (S)-4-(2-(2-bromoacetamido)acetamido)-5-((6-(4-((6aR,6bS,7S,8aS,8bS,10R,11aR,12aS,12bS)-7-hydroxy-8b-(2-hydroxyacetyl)-6a,8a-dimethyl-4-oxo-2,4,6a,6b,7,8,8a,8b,11a,12,12a,12b-dodecahydro-1H-naphtho[2′,1′:4,5]indeno[1,2-d][1,3]dioxol-10-yl)phenoxy)spiro[3.3]heptan-2-yl)amino)-5-oxopentanoic acid], the “potency of conjugated linker payloads over INX J (conclusions)” value in assay [3] is “enhanced potency”. In addition, in assay [2], the “FKBP5 induction when dosed 14 days early (conclusions)” value was “still display significant potency when dosed 14 days early in regard to FKBP5 induction”; the “FKBP5 induction in splenic cells” value is “only demonstrate significant induction at day 1, and 7”.
Turning to `C[C@]12C=CC(=O)C=C1CC[C@@H]1[C@@H]2[C@@H](O)C[C@@]2(C)[C@H]1C[C@H]1O[C@@H](c3ccc(Cc4cccc(NC(=O)[C@H](CCC(=O)O)NC(=O)CNC(=O)CBr)c4)cc3)O[C@]12C(=O)COP(=O)(O)O` [INX L], the “controlling cytokine response in PRM” value in assay [1] was “significant potency in controlling cytokine response in PRM when dosed 14 days early”. The “FKBP5 induction in splenic cells” value in assay [2] is “only demonstrate significant induction at day 1, and 7”.
As to `C[C@]12C=CC(=O)C=C1CC[C@@H]1[C@@H]2[C@@H](O)C[C@@]2(C)[C@H]1C[C@H]1O[C@@H](c3ccc(OC4CC5(CC(NC(=O)[C@H](CCC(=O)O)NC(=O)CNC(=O)CBr)C5)C4)cc3F)O[C@]12C(=O)CO` (stereo partly drawn) [INX A5, (S)-4-(2-(2-bromoacetamido)acetamido)-5-((6-(3-fluoro-4-((6aR,6bS,7S,8aS,8bS,10R,11aR,12aS,12bS)-7-hydroxy-8b-(2-hydroxyacetyl)-6a,8a-dimethyl-4-oxo-2,4,6a,6b,7,8,8a,8b,11a,12,12a,12b-dodecahydro-1H-naphtho[2′,1′:4,5]indeno[1,2-d][1,3]dioxol-10-yl)phenoxy)spiro[3.3]heptan-2-yl)amino)-5-oxopentanoic acid], the “potency of conjugated linker payloads over INX J (conclusions)” value in assay [3] was “enhanced potency”. Moreover, the “controlling cytokine response in PRM” value in assay [1] is reported as “significant potency in controlling cytokine response in PRM when dosed 14 days early”. Moreover, the “FKBP5 induction when dosed 14 days early (conclusions)” value in assay [2] is reported as “still display significant potency when dosed 14 days early in regard to FKBP5 induction”.
Turning to `C[C@]12C=CC(=O)C=C1CC[C@@H]1[C@@H]2[C@@H](O)C[C@@]2(C)[C@H]1C[C@H]1O[C@@H](c3ccc(Cc4cccc(NC(=O)[C@H](CCC(=O)O)NC(=O)CNC(=O)CBr)c4)cc3)O[C@]12C(=O)CO` [INX J, (S)-4-(2-(2-bromoacetamido)acetamido)-5-((3-(4-((6aR,6bS,7S,8aS,8bS,10R,11aR,12aS,12bS)-7-hydroxy-8b-(2-hydroxyacetyl)-6a,8a-dimethyl-4-oxo-2,4,6a,6b,7,8,8a,8b,11a,12,12a,12b-dodecahydro-1H-naphtho[2′,1′:4,5]indeno[1,2-d][1,3]dioxol-10-yl)benzyl)phenyl)amino)-5-oxopentanoic acid, reference compound], the “potency in PRM cytokine model” value in assay [1] was “show similar potency when dosed 7 days early”.
On to `C[C@]12C=CC(=O)C=C1CC[C@@H]1[C@@H]2[C@@H](O)C[C@@]2(C)[C@H]1C[C@H]1O[C@@H](c3ccc(CC45CC(NC(=O)[C@H](CCCCN)NC(=O)CNC(=O)CBr)(C4)C5)cc3)O[C@]12C(=O)CO` [INX W, (S)-6-amino-2-(2-(2-bromoacetamido)acetamido)-N-(3-(4-((6aR,6bS,7S,8aS,8bS,10R,11aR,12aS,12bS)-7-hydroxy-8b-(2-hydroxyacetyl)-6a,8a-dimethyl-4-oxo-2,4,6a,6b,7,8,8a,8b,11a,12,12a,12b-dodecahydro-1H-naphtho[2′,1′:4,5]indeno[1,2-d][1,3]dioxol-10-yl)benzyl)bicycle[1.1.1]pentan-1-yl) hexanamide], for which, in assay [1], the “preventing ex vivo induction” value is listed as “remarkable long-term potency in controlling cytokine responses”; the “potency in PRM cytokine model” value is “remarkably more potent than payloads INX P and INX R when dosed 7 days early”. Further, in assay [2], the “FKBP5 induction when dosed 14 days early (conclusions)” value is given as “still display significant potency when dosed 14 days early in regard to FKBP5 induction”.
Consider `C[C@]12C=CC(=O)C=C1CC[C@@H]1[C@@H]2[C@@H](O)C[C@@]2(C)[C@H]1C[C@H]1O[C@@H](c3ccc(CC45CC(NC(=O)[C@H](CCC(=O)O)NC(=O)CNC(=O)CBr)(C4)C5)cc3)O[C@]12C(=O)COP(=O)(O)O` [INX T, (S)-4-(2-(2-bromoacetamido)acetamido)-5-((3-(4-((6aR,6bS,7S,8aS,8bS,10R,11aR,12aS,12bS)-7-hydroxy-6a,8a-dimethyl-4-oxo-8b-(2-(phosphonooxy)acetyl)-2,4,6a,6b,7,8,8a,8b,11a,12,12a,12b-dodecahydro-1H-naphtho[2′,1′:4,5]indeno[1,2-d][1,3]dioxol-10-yl)benzyl)bicyclo[1.1.1]pentan-1-yl)amino)-5-oxopentanoic acid], for which the “controlling cytokine response in PRM” value in assay [1] is “significant potency in controlling cytokine response in PRM when dosed 14 days early”. For the same compound, in assay [2], the “FKBP5 induction when dosed 14 days early (conclusions)” value is “still display significant potency when dosed 14 days early in regard to FKBP5 induction”; the “FKBP5 induction in splenic cells” value is “Significant FKBP5 induction is seen at day 1, 7, and 14 in splenic cells”.
For the compound `C[C@H](NC(=O)CBr)C(=O)N[C@@H](C)C(=O)NC12CC(Cc3ccc([C@@H]4O[C@@H]5C[C@H]6[C@@H]7CCC8=CC(=O)C=C[C@]8(C)[C@H]7[C@@H](O)C[C@]6(C)[C@]5(C(=O)CO)O4)cc3)(C1)C2` [INX R, (S)-2-(2-bromoacetamido)-N—((S)-1-((3-(4-((6aR,6bS,7S,8aS,8bS,10R,11aR, 12aS,12bS)-7-hydroxy-8b-(2-hydroxyacetyl)-6a,8a-dimethyl-4-oxo-2,4,6a,6b,7,8,8a,8b,11a,12,12a,12b-dodecahydro-1H-naphtho[2′,1′:4,5]indeno[1,2-d][1,3]dioxol-10-yl)benzyl)bicyclo[1.1.1]pentan-1-yl)amino)-1-oxopropan-2-yl) propanamide], the “potency in PRM cytokine model” value in assay [1] was “show similar potency when dosed 7 days early”.
